Among the data in patent publication US20220089592A1, “IMIDAZO[1,2-A]PYRIDINYL DERIVATIVES AS IRAK4 INHIBITORS” (priority 2019, published 2022) are IC50 values, retold here.

A word on the IC50: it is the midpoint of a concentration-inhibition curve. A low value points to higher potency.

Experiment [1] has as its target T1, IRAK4 (Homo sapiens, UniProt Q9NWZ3).
T1 sequence (Q9NWZ3 1-460): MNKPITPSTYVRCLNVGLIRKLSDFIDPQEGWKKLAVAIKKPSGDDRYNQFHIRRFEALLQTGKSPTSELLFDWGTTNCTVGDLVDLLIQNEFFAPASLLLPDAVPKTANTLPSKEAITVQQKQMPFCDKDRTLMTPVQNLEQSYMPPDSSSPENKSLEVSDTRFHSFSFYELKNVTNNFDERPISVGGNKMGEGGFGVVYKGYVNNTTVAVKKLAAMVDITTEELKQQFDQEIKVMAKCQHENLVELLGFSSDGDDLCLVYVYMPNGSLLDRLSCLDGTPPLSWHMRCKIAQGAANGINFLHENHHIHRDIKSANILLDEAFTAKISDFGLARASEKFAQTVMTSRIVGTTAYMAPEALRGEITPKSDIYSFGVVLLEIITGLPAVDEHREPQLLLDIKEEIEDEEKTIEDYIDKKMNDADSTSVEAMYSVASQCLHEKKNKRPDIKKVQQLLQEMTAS
As to the kind of experiment: 2-hour 10 μM ATP Biochemical Assay (MesoScale Detection format; IRAK4 phosphorylation of biotin labeled IRAK1 activation loop peptide). The note with it: IRAK4 MSD BIOCHEMICAL (10 μM ATP) IC50 (μM), 1 nM IRAK4, 2 hours. The gist of the method:
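Kinase reaction run 2 h at 10 μM ATP with biotinylated IRAK1 activation-loop peptide, quenched with EDTA. Phospho-peptide captured on streptavidin MSD plates and detected with anti-phosphothreonine rabbit antibody plus Sulfo-Tag anti-rabbit electrochemiluminescence.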

The target in experiment [2] is T1, IRAK4. As to the kind of experiment: 2-hour 1 mM ATP IRAK4 Biochemical assay (as above, but with 100 pM IRAK4 and 1 mM ATP). The following applies: IRAK4 MSD BIOCHEMICAL (1 mM ATP) IC50 (μM), 100 pM IRAK4, 2 hours. The essentials:
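Run with 100 pM IRAK4 and 1 mM ATP for 2 hours, quenched with EDTA pH 8. Phosphorylated biotinylated peptide captured on streptavidin MSD plates and detected with anti-phosphothreonine antibody plus Sulfo-Tag secondary by electrochemiluminescence.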

As for `CCOc1cc2nc(C3CCOCC3)cn2cc1NC(=O)c1ccn(CC)n1` [Example 205, N-(7-ethoxy-2-(tetrahydro-2H-pyran-4-yl)imidazo[1,2-a]pyridin-6-yl)-1-ethyl-1H-pyrazole-3-carboxamide], the IC50 came out at 0.003 µM at IRAK4 [1] and 0.012 µM on IRAK4 [2].
Taken in the same sequence, the figures for `CCOc1cc2nc(CC3CCOC3)cn2cc1NC(=O)c1coc(C)n1` (stereo not shown) [Example 159, N-(7-ethoxy-2-((tetrahydrofuran-3-yl)methyl)imidazo[1,2-a]pyridin-6-yl)-2-methyloxazole-4-carboxamide] were 0.006 µM and 0.051 µM.
